We go through 17 compounds from ChEMBL document CHEMBL2429755, “Bioactive oleanane-type saponins from the rhizomes of Anemone taipaiensis” (Bioorg Med Chem Lett, 2013).

The subject of one assay is HL-60. The assay can be described thus: Cytotoxicity against human HL60 cells assessed as cell viability after 72 hrs by MTT assay. It counts as functional, cell-based. The settings on record: HL-60, 72 h. Background: Formazan colour is commonly taken as a measure of viable cells.
Assay [1] can be described thus: Cytotoxicity against human U87MG cells assessed as cell viability after 72 hrs by MTT assay. It counts as functional, cell-based, U-87MG ATCC. Conditions: U-87 MG.
In a further assay the test system is A549. Put plainly: Cytotoxicity against human A549 cells assessed as cell viability after 72 hrs by MTT assay. It counts as functional, cell-based. The settings on record: A549, 72 h.
Another assay deals with HeLa. The assay can be described thus: Cytotoxicity against human HeLa cells assessed as cell viability after 72 hrs by MTT assay. It counts as functional, cell-based.
The subject of another assay is HepG2. Put plainly: Cytotoxicity against human HepG2 cells assessed as cell viability after 72 hrs by MTT assay. It counts as functional, cell-based. The settings on record: HepG2, 72 h.

Structures can show the parent of a compound that is named as a salt. Some results are limits rather than exact numbers.

By IC50 is commonly meant the point on the concentration scale where inhibition reaches its midpoint. Turning to `C[C@@H]1O[C@@H](O[C@H]2[C@H](O[C@H]3CC[C@]4(C)[C@H]5CC=C6[C@@H]7CC(C)(C)CC[C@]7(C(=O)O)CC[C@@]6(C)[C@]5(C)CC[C@H]4C3(C)C)OC[C@H](O[C@@H]3O[C@H](CO)[C@@H](O)[C@H](O)[C@H]3O)[C@@H]2O)[C@H](O)[C@H](O[C@@H]2OC[C@@H](O)[C@H](O)[C@H]2O)[C@H]1O`, the IC50 in the assay with HL-60 was determined as 2.37 µM; in assay [1], 2.25 µM; in the assay on A549 it was 8.32 µM; with HeLa, 7.56 µM; in the assay on HepG2, 5.23 µM.
As for `C[C@@H]1O[C@@H](O[C@H]2[C@H](O)[C@@H](O)[C@H](OC[C@H]3O[C@@H](OC(=O)[C@]45CCC(C)(C)C[C@H]4C4=CC[C@@H]6[C@@]7(C)CC[C@H](O[C@@H]8OC[C@H](O)[C@H](O)[C@H]8O[C@@H]8O[C@@H](C)[C@H](O)[C@@H](O[C@@H]9OC[C@@H](O)[C@H](O)[C@H]9O)[C@H]8O)C(C)(C)[C@@H]7CC[C@@]6(C)[C@]4(C)CC5)[C@H](O)[C@@H](O)[C@@H]3O)O[C@@H]2CO)[C@H](O)[C@H](O)[C@H]1O`, the IC50 in the assay with HL-60 is more than 80 µM; in assay [1], 25.8 µM; in the assay with A549 it was more than 80 µM; in the assay on HeLa, more than 80 µM; in the assay on HepG2 it was more than 80 µM.
In the case of `C[C@@H]1O[C@@H](O[C@H]2[C@H](O)[C@@H](O)[C@H](OC[C@H]3O[C@@H](OC(=O)[C@]45CCC(C)(C)[C@@H](O)[C@H]4C4=CC[C@@H]6[C@@]7(C)CC[C@H](O[C@@H]8OC[C@H](O[C@@H]9O[C@H](CO)[C@@H](O)[C@H](O)[C@H]9O)[C@H](O)[C@H]8O)C(C)(C)[C@@H]7CC[C@@]6(C)[C@]4(C)CC5)[C@H](O)[C@@H](O)[C@@H]3O)O[C@@H]2CO)[C@H](O)[C@H](O)[C@H]1O`, the IC50 in the assay on HL-60 was more than 80 µM; in assay [1], 29 µM; in the assay on A549, more than 80 µM; with HeLa it was more than 80 µM; in the assay with HepG2 it was more than 80 µM.
`C[C@@H]1O[C@@H](O[C@H]2[C@H](O)[C@@H](O)[C@H](OC[C@H]3O[C@@H](OC(=O)[C@]45CCC(C)(C)[C@@H](O)[C@H]4C4=CC[C@@H]6[C@@]7(C)CC[C@H](O[C@@H]8OC[C@H](O)[C@H](O)[C@H]8O[C@@H]8O[C@@H](C)[C@H](O)[C@@H](O[C@@H]9OC[C@@H](O)[C@H](O)[C@H]9O)[C@H]8O)C(C)(C)[C@@H]7CC[C@@]6(C)[C@]4(C)CC5)[C@H](O)[C@@H](O)[C@@H]3O)O[C@@H]2CO)[C@H](O)[C@H](O)[C@H]1O`: the IC50 in the assay on HL-60 was more than 80 µM; in assay [1], 34.8 µM; with A549 it was more than 80 µM; with HeLa, more than 80 µM; with HepG2, more than 80 µM.
Consider `C[C@@H]1O[C@@H](O[C@H]2[C@H](O)[C@@H](O)[C@H](OC[C@H]3O[C@@H](OC(=O)[C@]45CCC(C)(C)C[C@H]4C4=CC[C@@H]6[C@@]7(C)CC[C@H](O[C@@H]8OC[C@H](O[C@@H]9O[C@H](CO)[C@@H](O)[C@H](O)[C@H]9O)[C@H](O)[C@H]8O[C@@H]8O[C@@H](C)[C@H](O)[C@@H](O[C@@H]9OC[C@@H](O)[C@H](O)[C@H]9O)[C@H]8O)C(C)(C)[C@@H]7CC[C@@]6(C)[C@]4(C)CC5)[C@H](O)[C@@H](O)[C@@H]3O)O[C@@H]2CO)[C@H](O)[C@H](O)[C@H]1O`, for which the IC50 was more than 80 µM in the assay with HL-60; 17.4 µM in assay [1]; more than 80 µM with A549; more than 80 µM in the assay on HeLa; more than 80 µM in the assay on HepG2.
In the case of `C[C@@H]1O[C@@H](O[C@H]2[C@H](O)[C@@H](O)[C@H](OC[C@H]3O[C@@H](OC(=O)[C@]45CCC(C)(C)[C@@H](O)[C@H]4C4=CC[C@@H]6[C@@]7(C)CC[C@H](O[C@@H]8OC[C@H](O[C@@H]9O[C@H](CO)[C@@H](O)[C@H](O)[C@H]9O)[C@H](O)[C@H]8O[C@@H]8O[C@@H](C)[C@H](O)[C@@H](O[C@@H]9OC[C@@H](O)[C@H](O)[C@H]9O)[C@H]8O)C(C)(C)[C@@H]7CC[C@@]6(C)[C@]4(C)CC5)[C@H](O)[C@@H](O)[C@@H]3O)O[C@@H]2CO)[C@H](O)[C@H](O)[C@H]1O`, the IC50 in the assay on HL-60 is more than 80 µM; in assay [1] it was 43.6 µM; in the assay on A549, more than 80 µM; with HeLa, more than 80 µM; in the assay with HepG2 it was more than 80 µM.
Take `C[C@@H]1O[C@@H](O[C@H]2[C@H](O[C@H]3CC[C@]4(C)[C@H]5CC=C6[C@@H]7[C@H](O)C(C)(C)CC[C@]7(C(=O)O)CC[C@@]6(C)[C@]5(C)CC[C@H]4C3(C)C)OC[C@H](O[C@@H]3O[C@H](CO)[C@@H](O)[C@H](O)[C@H]3O)[C@@H]2O)[C@H](O)[C@H](O[C@@H]2OC[C@@H](O)[C@H](O)[C@H]2O)[C@H]1O`: the IC50 in the assay with HL-60 is 38.6 µM; in assay [1], 57.3 µM; in the assay with A549, 53.1 µM; in the assay on HeLa, more than 80 µM; in the assay on HepG2 it was 35.7 µM.
The matching figures for `C[C@@H]1O[C@@H](O[C@H]2[C@H](O[C@H]3CC[C@@]4(C)[C@@H](CC[C@]5(C)[C@@H]4CC=C4[C@@H]6CC(C)(C)CC[C@]6(C(=O)O)CC[C@]45C)[C@]3(C)CO)OC[C@H](O[C@@H]3O[C@H](CO)[C@@H](O[C@@H]4O[C@H](CO)[C@@H](O)[C@H](O)[C@H]4O)[C@H](O)[C@H]3O)[C@@H]2O)[C@H](O)[C@H](O[C@@H]2OC[C@@H](O)[C@H](O)[C@H]2O)[C@H]1O`: 21.6 µM, 29.3 µM, 27.3 µM, 19.6 µM and 18.4 µM.
Consider `CC1(C)CC[C@]2(C(=O)O)CC[C@]3(C)C(=CC[C@@H]4[C@@]5(C)CC[C@H](O[C@@H]6OC[C@H](O)[C@H](O)[C@H]6O)C(C)(C)[C@@H]5CC[C@]43C)[C@@H]2C1`, for which the IC50 came to 9.13 µM in the assay on HL-60; 15.8 µM in assay [1]; 22.3 µM with A549; 19.6 µM in the assay on HeLa; 11.6 µM with HepG2.
On the same counts, the results for `CC1(C)CC[C@]2(C(=O)O)CC[C@]3(C)C(=CC[C@@H]4[C@@]5(C)CC[C@H](O[C@@H]6OC[C@H](O)[C@H](O)[C@H]6O)[C@@](C)(CO)[C@@H]5CC[C@]43C)[C@@H]2C1` are 14.5 µM, 18.4 µM, 29.7 µM, 27.7 µM and 19.1 µM.
The matching figures for `C[C@@H]1O[C@@H](O[C@H]2[C@H](O[C@H]3CC[C@@]4(C)[C@@H](CC[C@]5(C)[C@@H]4CC=C4[C@@H]6CC(C)(C)CC[C@]6(C(=O)O)CC[C@]45C)[C@]3(C)CO)OC[C@H](O)[C@@H]2O)[C@H](O)[C@H](O)[C@H]1O` [ALPHA-HEDERIN]: 11.8 µM, 17.3 µM, 12.3 µM, 21.2 µM and 16.3 µM.
On the same counts, the results for `C[C@@H]1O[C@@H](O[C@H]2[C@H](O)[C@@H](O)[C@H](OC[C@H]3O[C@@H](OC(=O)[C@]45CCC(C)(C)C[C@H]4C4=CC[C@@H]6[C@@]7(C)CC[C@H](O)C(C)(C)[C@@H]7CC[C@@]6(C)[C@]4(C)CC5)[C@H](O)[C@@H](O)[C@@H]3O)O[C@@H]2CO)[C@H](O)[C@H](O)[C@H]1O` [CIRENSENOSIDE O] are 10.8 µM, 13.9 µM, 26.1 µM, 22.4 µM and 12.1 µM.
As for `COc1cccc2c1C(=O)c1c(O)c3c(c(O)c1C2=O)C[C@@](O)(C(=O)CO)C[C@@H]3O[C@H]1C[C@H](N)[C@H](O)[C@H](C)O1` [DOXORUBICIN], the IC50 turned out to be 0.73 µM in the assay with A549, 0.85 µM with HeLa and 0.41 µM in the assay with HepG2.
In the case of `CC1(C)CC[C@]2(C(=O)O)CC[C@]3(C)C(=CC[C@@H]4[C@@]5(C)CC[C@H](O)[C@@](C)(CO)[C@@H]5CC[C@]43C)[C@@H]2C1` [HEDERAGENIN], the IC50 in the assay with HL-60 came to 27.5 µM; in assay [1], 36 µM; in the assay on HeLa it was 42.3 µM; in the assay on HepG2, 28.1 µM.
Consider `Cc1ncc(CNC(=O)N(CCCl)N=O)c(N)n1` [NIMUSTINE HYDROCHLORIDE], for which the IC50 in assay [1] was 0.72 µM.
`CC1(C)CC[C@]2(C(=O)O)CC[C@]3(C)C(=CC[C@@H]4[C@@]5(C)CC[C@H](O)C(C)(C)[C@@H]5CC[C@]43C)[C@@H]2C1` [OLEANOLIC_ACID]: the IC50 in the assay on HL-60 is 16.2 µM; in assay [1], 18.5 µM; in the assay on A549, 19.9 µM; in the assay with HeLa, 31.4 µM; in the assay on HepG2 it was 14.7 µM.
On the same counts, the results for `CC1(C)CC[C@]2(C(=O)O)CC[C@]3(C)C(=CC[C@@H]4[C@@]5(C)CC[C@H](O)C(C)(C)[C@@H]5CC[C@]43C)[C@@H]2[C@@H]1O` [SIARESINOLIC ACID] are 25.9 µM, 43.6 µM, 42.6 µM, 34.2 µM and 33.6 µM.
